Results taken from publication PMC3932302 (Clinical cancer research : an official journal of the …, 2013).

How the values were obtained:
Type in all cases: cell-based
[1] = target: T1, organic cation transporter 1 (OCT1) (Homo sapiens, UniProt O15245); assay: inhibition of […]TEA uptake into HEK-OCT1 cells at […]
T1 sequence (O15245 1-554): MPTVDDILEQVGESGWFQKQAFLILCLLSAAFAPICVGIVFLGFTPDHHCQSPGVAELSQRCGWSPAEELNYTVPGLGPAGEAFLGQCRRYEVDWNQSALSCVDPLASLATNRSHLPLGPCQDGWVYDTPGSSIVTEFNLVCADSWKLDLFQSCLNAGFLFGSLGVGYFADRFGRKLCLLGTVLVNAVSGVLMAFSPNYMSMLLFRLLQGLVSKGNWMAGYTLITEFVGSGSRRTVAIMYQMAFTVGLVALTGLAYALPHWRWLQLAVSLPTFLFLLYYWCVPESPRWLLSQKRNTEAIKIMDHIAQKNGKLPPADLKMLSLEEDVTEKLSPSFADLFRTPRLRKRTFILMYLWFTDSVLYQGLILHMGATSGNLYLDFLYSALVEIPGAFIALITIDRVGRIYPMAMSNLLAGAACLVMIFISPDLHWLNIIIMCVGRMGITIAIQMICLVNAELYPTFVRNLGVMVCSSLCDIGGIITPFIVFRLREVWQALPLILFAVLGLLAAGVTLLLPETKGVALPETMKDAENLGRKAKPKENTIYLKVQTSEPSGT

[2] = target: T1, organic cation transporter 1 (OCT1); assay: inhibition of TEA uptake into OCT1-expressing cells at […]; details: read-out: % inhibition at 50 μmol/L
[3] = target: T1, organic cation transporter 1 (OCT1)

SMILES: CCN1/C(=C/c2ccc3ccccc3[n+]2CC)C=Cc2ccccc21 [decynium22]
- inhibition of [14C]TEA uptake into HEK-OCT1 cells at 5 μmol/L [1]: OCT1-dependent TEA uptake was significantly reduced in the presence of the inhibitors prazosin and decynium22 (Fig. 4A)

SMILES: Cc1ccc(NC(=O)c2ccc(CN3CCNCC3)cc2)cc1Nc1nccc(-c2cccnc2)n1 [N-desmethyl imatinib]
- inhibition at 50 µM [2]: 90.7 ± 1%

SMILES: COc1cc2nc(N3CCN(C(=O)c4ccco4)CC3)nc(N)c2cc1OC [prazosin]
- inhibition of [14C]TEA uptake into HEK-OCT1 cells [3]: OCT1-dependent TEA uptake was significantly reduced in the presence of the inhibitors prazosin and decynium22 (Fig. 4A)
